Experiment [1] relates to T1, HpeHI.
T1 construct: gene hpeH; two components made separately in E. coli, N-terminal His tags cut with TEV; phenolic site in HpeH
The experiment is described as follows: continuous spectrophotometric assay, low-concentration rates verified by LC-MS. The note with it: apparent; 500 μM ATP, 2.0 mM MgCl2, 25 μM MnCl2, HEPES pH 7.5, I = 20 mM, 30 °C; 0.05 μM HpeH, 0.10 μM HpeI; upper bound. Type of experiment: biochemical, Rhodococcus rhodochrous. The source says:
continuous spectrophotometric assay, low-concentration rates verified by LC-MS on HpeHI

The subject of experiment [2] is T1, HpeHI. The experiment in a line: continuous spectrophotometric assay. It is filed as biochemical, Rhodococcus rhodochrous. To be noted: apparent; 500 μM ATP, 2.0 mM MgCl2, 25 μM MnCl2, HEPES pH 7.5, I = 20 mM, 30 °C; 0.05 μM HpeH, 0.10 μM HpeI. The source says:
continuous spectrophotometric assay on HpeHI

Experiment [3] has as its target HpeH (Rhodococcus rhodochrous GD02). The experiment in a line: mass photometry; Refeyn TwoMP; samples at 20 nM in the standard assay buffer (low ionic strength); acquisition 60 s.
For experiment [4] the target is unchanged. The experiment in a line: SEC-MALS; Superdex 200; 50 µl of HpeH (12.5 µM), HpeI (25 µM) or both, incubated at room temperature for at least 20 min; 10 mM Hepes pH 7.5, 0.50 mM TCEP, 2.0 mM MgCl2, 0.25 mM MnCl2, with 20 mM or 200 mM NaCl; also with AMP-PNP. (In general: Size exclusion chromatography separates by hydrodynamic size, large species first.)

For orientation: Km means the substrate concentration at which the rate is half of its maximum. In the case of `CC(=O)c1ccc(O)cc1` [4-hydroxyacetophenone], the Km in experiment [1] is < 0.3 µM.
With `O=Cc1ccc(O)cc1` [4-hydroxybenzaldehyde], the Km in experiment [2] was 9.6 µM.
For the compound `COc1cc(C(C)=O)ccc1O` [acetovanillone], the Km in experiment [1] is < 0.3 µM.
As for `COc1cc(C=O)ccc1O` [vanillin], the Km in experiment [2] was 10.3 µM.
The term stoichiometry N denotes the number of molecules, sites or subunits per partner or assembly. On to HpeH (enzyme), for which the stoichiometry N in experiment [3] and in experiment [4] was 2 throughout.

For the origin of these results see paper PMC12167813, “Characterization of a two-component kinase that initiates the bacterial catabolism of hydroxyphenylethanones” (The Journal of Biological Chemistry, 2025).
